Data reported in PubChem BioAssay AID1259407 (Chemical Carcinogenesis Research Information System (CCRIS), 2018).
Calls of active or inactive are those of the source. The rule behind the calls is not given here.

System: CCRIS mutagenicity, Ames/micronucleus/aberration tests
Assay: CCRIS mutagenicity studies

In the case of `O=C1c2ccccc2C(=O)C1c1ccc2ccccc2n1`, the mutagenic call (Test System: AMES SALMONELLA TYPHIMURIUM, Strain/Indicator: TA97, Metabolic Activation: HAMSTER, LIVER, S-9, AROCLOR 1254 (10%), Method: PREINCUBATION) is reported as “inactive; negative”, the mutagenic call (Test System: AMES SALMONELLA TYPHIMURIUM, Strain/Indicator: TA97, Metabolic Activation: HAMSTER, LIVER, S-9, AROCLOR 1254 (30%), Method: PREINCUBATION) is reported as “inactive; negative” and the mutagenic call (Test System: AMES SALMONELLA TYPHIMURIUM, Strain/Indicator: TA97, Metabolic Activation: NONE, Method: PREINCUBATION) is reported as “inactive; negative”. The mutagenic call (Test System: AMES SALMONELLA TYPHIMURIUM, Strain/Indicator: TA97, Metabolic Activation: RAT, LIVER, S-9, AROCLOR 1254 (10%), Method: PREINCUBATION) was “inactive; negative”, the mutagenic call (Test System: AMES SALMONELLA TYPHIMURIUM, Strain/Indicator: TA97, Metabolic Activation: RAT, LIVER, S-9, AROCLOR 1254 (30%), Method: PREINCUBATION) was “inactive; negative” and the mutagenic call (Test System: AMES SALMONELLA TYPHIMURIUM, Strain/Indicator: TA98, Metabolic Activation: HAMSTER, LIVER, S-9, AROCLOR 1254 (5%), Method: PREINCUBATION) was “inactive; negative”. The mutagenic call (Test System: AMES SALMONELLA TYPHIMURIUM, Strain/Indicator: TA98, Metabolic Activation: HAMSTER, LIVER, S-9, AROCLOR 1254 (10%), Method: PREINCUBATION) was “inactive; negative”, the mutagenic call (Test System: AMES SALMONELLA TYPHIMURIUM, Strain/Indicator: TA98, Metabolic Activation: HAMSTER, LIVER, S-9, AROCLOR 1254 (30%), Method: PREINCUBATION) was “inactive; negative” and the mutagenic call (Test System: AMES SALMONELLA TYPHIMURIUM, Strain/Indicator: TA98, Metabolic Activation: NONE, Method: PREINCUBATION) was “inactive; negative”. For the same compound, the mutagenic call (Test System: AMES SALMONELLA TYPHIMURIUM, Strain/Indicator: TA98, Metabolic Activation: RAT, LIVER, S-9, AROCLOR 1254 (5%), Method: PREINCUBATION) was “inactive; negative”, the mutagenic call (Test System: AMES SALMONELLA TYPHIMURIUM, Strain/Indicator: TA98, Metabolic Activation: RAT, LIVER, S-9, AROCLOR 1254 (10%), Method: PREINCUBATION) was “inactive; negative” and the mutagenic call (Test System: AMES SALMONELLA TYPHIMURIUM, Strain/Indicator: TA98, Metabolic Activation: RAT, LIVER, S-9, AROCLOR 1254 (30%), Method: PREINCUBATION) was “active; positive”. The mutagenic call (Test System: AMES SALMONELLA TYPHIMURIUM, Strain/Indicator: TA100, Metabolic Activation: HAMSTER, LIVER, S-9, AROCLOR 1254 (10%), Method: PREINCUBATION) was “inactive; negative”, the mutagenic call (Test System: AMES SALMONELLA TYPHIMURIUM, Strain/Indicator: TA100, Metabolic Activation: HAMSTER, LIVER, S-9, AROCLOR 1254 (30%), Method: PREINCUBATION) was “active; positive” and the mutagenic call (Test System: AMES SALMONELLA TYPHIMURIUM, Strain/Indicator: TA100, Metabolic Activation: NONE, Method: PREINCUBATION) was “inactive; negative”. For the same compound, the mutagenic call (Test System: AMES SALMONELLA TYPHIMURIUM, Strain/Indicator: TA100, Metabolic Activation: RAT, LIVER, S-9, AROCLOR 1254 (5 OR 10%), Method: PREINCUBATION) was “inactive; negative”, the mutagenic call (Test System: AMES SALMONELLA TYPHIMURIUM, Strain/Indicator: TA100, Metabolic Activation: RAT, LIVER, S-9, AROCLOR 1254 (30%), Method: PREINCUBATION) was “active; positive” and the mutagenic call (Test System: AMES SALMONELLA TYPHIMURIUM, Strain/Indicator: TA1535, Metabolic Activation: HAMSTER, LIVER, S-9, AROCLOR 1254 (10%), Method: PREINCUBATION) was “inactive; negative”. For the same compound, the mutagenic call (Test System: AMES SALMONELLA TYPHIMURIUM, Strain/Indicator: TA1535, Metabolic Activation: HAMSTER, LIVER, S-9, AROCLOR 1254 (30%), Method: PREINCUBATION) was “inactive; negative”, the mutagenic call (Test System: AMES SALMONELLA TYPHIMURIUM, Strain/Indicator: TA1535, Metabolic Activation: NONE, Method: PREINCUBATION) was “inactive; negative” and the mutagenic call (Test System: AMES SALMONELLA TYPHIMURIUM, Strain/Indicator: TA1535, Metabolic Activation: RAT, LIVER, S-9, AROCLOR 1254 (10%), Method: PREINCUBATION) was “inactive; negative”. The mutagenic call (Test System: AMES SALMONELLA TYPHIMURIUM, Strain/Indicator: TA1535, Metabolic Activation: RAT, LIVER, S-9, AROCLOR 1254 (30%), Method: PREINCUBATION) was “inactive; negative”, the mutagenic call (Test System: AMES SALMONELLA TYPHIMURIUM, Strain/Indicator: TA1537 R+, Metabolic Activation: NONE, Method: STANDARD PLATE) was “active; positive” and the mutagenic call (Test System: AMES SALMONELLA TYPHIMURIUM, Strain/Indicator: TA1537 R+, Metabolic Activation: RAT, LIVER, S-9, AROCLOR 1254, Method: STANDARD PLATE) was “active; positive”. For the same compound, the mutagenic call (Test System: AMES SALMONELLA TYPHIMURIUM, Strain/Indicator: TA1538, Metabolic Activation: HAMSTER, LIVER, S-9, AROCLOR 1254 (30%), Method: PREINCUBATION) was “active; positive” and the mutagenic call (Test System: AMES SALMONELLA TYPHIMURIUM, Strain/Indicator: TA1538, Metabolic Activation: RAT, LIVER, S-9, AROCLOR 1254 (30%), Method: PREINCUBATION) was “active; positive”.
For `COc1ccc2nc(N)sc2c1`, the mutagenic call (Test System: AMES SALMONELLA TYPHIMURIUM, Strain/Indicator: TA98, Metabolic Activation: HAMSTER, LIVER, S-9, AROCLOR 1254, Method: STANDARD PLATE) was “active; positive”, the mutagenic call (Test System: AMES SALMONELLA TYPHIMURIUM, Strain/Indicator: TA98, Metabolic Activation: NONE, Method: STANDARD PLATE) was “active; positive” and the mutagenic call (Test System: AMES SALMONELLA TYPHIMURIUM, Strain/Indicator: TA98, Metabolic Activation: RAT, LIVER, S-9, AROCLOR 1254, Method: STANDARD PLATE) was “active; positive”. The mutagenic call (Test System: AMES SALMONELLA TYPHIMURIUM, Strain/Indicator: TA100, Metabolic Activation: HAMSTER, LIVER, S-9, AROCLOR 1254, Method: STANDARD PLATE) was “active; positive”, the mutagenic call (Test System: AMES SALMONELLA TYPHIMURIUM, Strain/Indicator: TA100, Metabolic Activation: NONE, Method: STANDARD PLATE) was “inactive; negative” and the mutagenic call (Test System: AMES SALMONELLA TYPHIMURIUM, Strain/Indicator: TA100, Metabolic Activation: RAT, LIVER, S-9, AROCLOR 1254, Method: STANDARD PLATE) was “active; positive”. For the same compound, the mutagenic call (Test System: AMES SALMONELLA TYPHIMURIUM, Strain/Indicator: TA1535, Metabolic Activation: HAMSTER, LIVER, S-9, AROCLOR 1254, Method: STANDARD PLATE) was “active; positive”, the mutagenic call (Test System: AMES SALMONELLA TYPHIMURIUM, Strain/Indicator: TA1535, Metabolic Activation: NONE, Method: STANDARD PLATE) was “inactive; negative” and the mutagenic call (Test System: AMES SALMONELLA TYPHIMURIUM, Strain/Indicator: TA1535, Metabolic Activation: RAT, LIVER, S-9, AROCLOR 1254, Method: STANDARD PLATE) was “active; positive”. For the same compound, the mutagenic call (Test System: AMES SALMONELLA TYPHIMURIUM, Strain/Indicator: TA1537, Metabolic Activation: HAMSTER, LIVER, S-9, AROCLOR 1254, Method: STANDARD PLATE) was “active; positive”, the mutagenic call (Test System: AMES SALMONELLA TYPHIMURIUM, Strain/Indicator: TA1537, Metabolic Activation: NONE, Method: STANDARD PLATE) was “inactive; negative” and the mutagenic call (Test System: AMES SALMONELLA TYPHIMURIUM, Strain/Indicator: TA1537, Metabolic Activation: RAT, LIVER, S-9, AROCLOR 1254, Method: STANDARD PLATE) was “active; positive”. For the same compound, the mutagenic call (Test System: AMES SALMONELLA TYPHIMURIUM, Strain/Indicator: TA1538, Metabolic Activation: HAMSTER, LIVER, S-9, AROCLOR 1254, Method: STANDARD PLATE) was “active; positive”, the mutagenic call (Test System: AMES SALMONELLA TYPHIMURIUM, Strain/Indicator: TA1538, Metabolic Activation: NONE, Method: STANDARD PLATE) was “active; positive” and the mutagenic call (Test System: AMES SALMONELLA TYPHIMURIUM, Strain/Indicator: TA1538, Metabolic Activation: RAT, LIVER, S-9, AROCLOR 1254, Method: STANDARD PLATE) was “active; positive”. For the same compound, the mutagenic call (Test System: MOUSE LYMPHOMA, Strain/Indicator: L5178Y (TK+/TK-), Metabolic Activation: NONE, Method: SUSPENSION/PLATE) was “inactive; negative. reevaluation of results: negative” and the mutagenic call (Test System: MOUSE LYMPHOMA, Strain/Indicator: L5178Y (TK+/TK-), Metabolic Activation: RAT, LIVER, S-9, AROCLOR 1254, Method: SUSPENSION/PLATE) was “active; positive. reevaluation of results: positive”.
